Source: US12433870B2, “Supramolecular photoprotection of a photosensitizer” (Northwestern University, priority 2019, dated 2025)
Entries after “also recorded” stand apart in the source; their conditions may differ.

Assays:
[1] = test system: A2780 cells; assay: Annexin V FITC/7-AAD apoptosis assay; format: cell-based; settings: for intact cells: dark conditions
Procedure: A2780 cells (5×10^5 cells/mL, 100 μL) were seeded in each well of a Black 96-well plate and incubated with 5 or 10 μM PBS solution of ExBox^4+⊃DPP for 12 h. After incubation, cells were washed with 1×PBS, added with 100 μL of DMEM and immediately irradiated with visible light using Max-303 Xenon Light Source (385-740 nm, Asahi Spectra) at 25 and 50 mW light intensities for 10 min. After irradiation, cells were incubated for an additional 3 h prior to being trypsinized and recovered for annexin V staining. 50 μL of Annexin V solution (1:50 FITC Annexin V in Annexin V staining buffer) was added to cells and was incubated at room temperature for 20 min. 500 μL of 1×PBS was then added to cells, which were centrifuged at 400 ref for 5 min, and the supernatant was discarded. Cells were resuspended in 100 μL of 1:20 7-AAD in cell staining buffer and were incubated for 10 min prior to analysis on a BD Fortessa flow cytometer. Cells were first gated for singlet events using FSC-A vs. FSC-H, after which debris was excluded used FSC-A vs. SSC-A. All remaining events were gated as live, dead, or apoptotic based on annexin V staining vs. 7-AAD staining, with dead cells staining 7-AAD+, live cells staining as 7-AAD- and annexin-V-, and apoptotic cells staining 7-AAD-annexin-V+. Cells without irradiation were used as controls.

[2] = test system: A2780 cells; assay: Calcein-AM/Ethidium homodimer-1 live-dead assay; format: cell-based, human; settings: 10 μM
Procedure: A2780 cells (1×10^5 cells/mL, 300 μL) were plated in each well of an 8-well μ-slide (ibidi cell focus) and cultured overnight. PBS solution of ExBox^4+⊃DPP was added to each well and incubated for predetermined time points. For cellular co-localization studies, cells were washed with phenol free DMEM and stained with LysoTracker green (lysosome stain, 1:1000 dilution) or MitoSpy™ Green FM (mitochondria stain, 1:2000 dilution) or NucBlue™ Live ReadyProbes™ Reagent (nuclei stain, 1 drop). For the live-dead assay, cells were incubated with PBS solution of ExBox^4+⊃DPP irradiated for 10 min at […] light intensity, incubated overnight, and stained with Calcein AM (2 μM) and Ethidium homodimer-1 (4 μM). Plated cells were imaged within a humidified chamber using a 63× oil-immersion objective on a SP5 Leica Confocal Microscope using HyD detectors and lasers.

[3] = Solubility in water / PBS buffer; format: physicochemical; settings: H2O
[4] = test system: A2780 cells; assay: MTT assay, in vitro cytotoxicity in the dark; format: cell-based, human; settings: 0.625-100 μM in PBS
Procedure: (§1) A2780 cells (human ovarian cancer cell line) and MCF-7 cells (human breast adenocarcinoma cell line) obtained from Sigma-Aldrich and American Type Culture Collection (ATCC, Rockville, MD, USA), respectively were utilized for cell culture experiments. These cells were cultured in Dulbecco's Modified Eagle's Medium (DMEM) supplemented with 10% fetal bovine serum (FBS), penicillin (100 IU/mL) and streptomycin (100 μg/mL) at 37° C. in the presence of air (95%) and CO2 (5%).
(§2) A2780 or MCF-7 cells (2×10^5 cells/mL, 100 μL) were seeded in each well of a black 96-well plate. Stock solution of ExBox^4+⊃DPP in PBS (1 mM, 10 μL) was added to each well to achieve working concentrations and incubated for 12 h. […] Following irradiation, cells were incubated overnight and then added with MTT (5 mg/mL in PBS, 10 μL). After 4 h incubation with MTT, media from each well was pipetted out, formazan crystals deposited on the plate were dissolved in 200 μL of Me2SO, and the absorbance of each well was measured using a microplate reader at 560 nm. All the samples were analyzed in quadruplicates.
(§3) The percentage cell viability was calculated using the following formula: % cell viability=(OD of treated sample/OD of untreated sample)*100.

[5] = test system: MCF-7 cells; assay: MTT assay, in vitro cytotoxicity in the dark; format: cell-based, human; settings: 0.625-100 μM in PBS
Procedure: as §1, §2, §3

[6] = Detection of singlet oxygen (ADPA chemical method, methylene blue reference); format: physicochemical; settings: H2O, 20 μM, 630 nm, 50 mW, 20 min
Procedure: Singlet oxygen (^1O2) quantum-yield measurements were conducted by a chemical method. The disodium salt of 9.10-anthracenedipropionic acid (ADPA) was used as singlet oxygen detection reagent with methylene blue used as a reference (Φt=0.53). In this experiment, ADPA (0.1 μmol) was added to the H2O solution of ExBox^4+⊃DPP (20 μM) with a laser irradiation (630 nm, 50 mW) for 20 min, followed by quantification of ^1O2 by the absorbance intensity change (UV-3600 Shimadzu spectrophotometer) at 380 nm of ADPA. The calculation of ^1O2 quantum yield is based on the equality ΦΔ=(ΔAs/[…])Φr. ΔAs is the absorption change of detected photosensitizer, ΔAr is the absorption change of referenced photosensitizer and Φ^r is the quantum yield of singlet oxygen of referenced photosensitizer (methylene blue).
(§4) ADPA (0.1 μmol) was added to the H2O solution of DPPH2^+ (20 μM) with a laser irradiation (630 nm, 50 mW) for 20 min, followed by quantification of the ^1O2 by the absorbance intensity change (UV-3600 Shimadzu spectrophotometer) at 380 nm of ADPA. The calculation of the ^1O2 quantum yield is based on the equality ΦΔ=(ΔAs/ΔAr)Φr where ΔAs is the absorption change of detected photosensitizer, ΔAr is the absorption change of referenced photosensitizer and Φr is the quantum yield of singlet oxygen of referenced photosensitizer (methylene blue). Measured ^1O2 quantum yield of DPPH2^2+ is 0.38 in H2O.
as §4, with “acetone” for “H2O”, “DPP” for “DPPH2^+”, “DPP” for “DPPH2^2+”, “0.43” for “0.38”, “acetone.” for “H2O.”

C1=Cc2nc1cc1ccc([nH]1)c(-c1ccccc1)c1nc(cc3ccc([nH]3)c2-c2ccccc2)C=C1.c1cc2ccc1C[n+]1ccc(cc1)-c1ccc(cc1)-c1cc[n+](cc1)Cc1ccc(cc1)C[n+]1ccc(cc1)-c1ccc(cc1)-c1cc[n+](cc1)C2 [ExBox^4+⊃DPP]
intact cells ([1]; 5 μM): 79%
apoptotic cells ([1]; 10 μM versus 5 μM, 0.078 or 0.156 Jcm^−2 light dose, 3 h post irradiation): a smaller number of apoptotic cells
intact cells ([1]; 10 μM): 72%
live-dead staining ([2]; 0.156 J cm^−2 light dose for 10 min): red fluorescence
live-dead staining ([2]; dark conditions): bright green fluorescence
solubility in H2O [3]: soluble in H2O
cell viability in the dark [4]: > 95%
cell viability in the dark [5]: > 95%
singlet oxygen generation upon photoexcitation [6]: did not generate any singlet oxygen; also recorded: ^1O2 was not generated
